Laboratory results: patent publication US20130225683A1, “Compounds and Pharmaceutical Compositions for Uses in Diabetes” (PROMETIC BIOSCIENCES INC., priority 2010, published 2013)
“Also recorded” adds a separate entry of the source.

Key:
[1] = system: 5/6 nephrectomized (Nx) rat model; assay: 5/6 nephrectomized (Nx) rat model, Compound XIV by gastric gavage once daily; assay type: in vivo, male Wistar rats; settings: Nx rats, p<0.01
Source text: Male 6 week-old Wistar rats were subjected to 5/6 nephrectomy or sham operations. Under fluothane anesthesia, renal ablation was achieved by removing two-thirds of the left kidney followed by a right unilateral nephrectomy 7 days later. Sham rats underwent exposition of the kidneys and removal of the perirenal fat. Animals that underwent the sham operation were given vehicle (saline) and were used as controls. Nx animals were divided in groups receiving the vehicle or Compound XIV. Saline or Compound XIV was given by gastric gavage once daily up to the sacrifice. Serum glucose was measured every three weeks in order to assess the effect of the compound on serum glucose concentration in a renal disease model. Rats were sacrificed at day 126.

[2] = system: streptozotocin-induced diabetes; assay: Streptozotocin-induced diabetes model in rats, oral Compound I; assay type: in vivo, male Sprague Dawley rats
Method: Diabetes was induced by a single intraperitoneal administration of streptozotocin (65 mg/kg of body weight) in fasted male Sprague Dawley rats, weighing approximately 200-250 g. After 48 hours, rats with plasma glucose more than 10 mmole/L were enrolled and treated with vehicle or compounds. Streptozotocin is well known to induce […] toxicity. […] Ketonuria is a medical condition in which ketone bodies are present in the urine. It is seen in conditions in which the body produces excess ketones as an alternative source of energy. It is seen during starvation or more commonly in diabetes. […] Proteinuria is a medical condition in which an excess of protein is present in the urine. Proteinuria may be a sign of renal kidney damage. Since serum proteins are readily reabsorbed from urine, the presence of excess protein indicates either an insufficiency of absorption or impaired filtration. Diabetics may suffer from damaged nephrons and develop proteinuria. The most common cause of proteinuria is diabetes. […] Despite the available therapies of glycemic and blood pressure control, many patients continue to show progressive renal damage. Therefore, it is extremely important to identify novel interventions to halt the progression of diabetic nephropathy.

[3] = system: diabetic mouse (db/db) model; assay: Diabetic db/db uninephrectomized mouse model, oral Compound I; assay type: in vivo, male Lepr db (db/db) mice; settings: 100 mg/kg per day oral; day 69 to day 128; FIG. 7
Method: Male Lepr db (db/db) and age- and sex-matched control mice with the same genetic background (C57BL/6) were used. Animals were randomized using blood sugar measurement (5-hours starved) at week 6 and uninephrectomy (removal of right kidney) was performed. Sham animals (C57BL/6) underwent exposition of the right kidney. Animals that underwent the sham operation were given vehicle (saline) and were used as negative controls. C57BL/6 mice that were uninephrectomized were given vehicle and were used as positive controls. Db/db mice were treated with oral administration of compound I at 100 mg/kg per day for 131 days. Serum glucose was measured every two to four weeks. Oral glucose tolerance test was performed on 16-hours starved mice at day 112. […] Fluorescence was determined and GFR calculated based on a two-compartment model using nonlinear regression curve-fitting software.

Row | Compound | urinary proteins concentration ([1]; 10 mg/kg, day 84 and 126, FIG. 6) | serum glucose concentration ([1]; 50 mg/kg, day 42 to day 126, FIG. 5) | level of increase in blood glucose (delta) ([2]; 100 mg/kg oral, day 2 to day 62 post-streptozotocin, p<0.05, FIG. 1) | urinary protein (proteinuria) ([2]; 100 mg/kg oral, vs STZ+ (diabetic) animals, FIG. 3) | ketone bodies in urine ([2]; streptozotocin-diabetic rats, treated vs untreated, p<0.05, FIG. 2) | serum glucose concentration (percent increase vs C57BL/6 sham) [3]
1 | CCCCCCCCC(Oc1ccc(C(=O)CCCCCCC)cc1)C(=O)[O-].[Na+] (racemic) [Compound XIV, Sodium (RS)-2-[4-octanoylphenoxy]decanoate] | significant (p<0.01) decrease | significant (p<0.01) decrease |  |  |  | 
2 | CCCCCc1cccc(CC(=O)[O-])c1.[Na+] [Compound I] |  |  | decrease significantly | completely abbrogated the presence of urinary protein | significantly reduce the appearance of ketone bodies in the urine; also recorded: significantly (p<0.05) reduced | significant decrease
